Key:
Test in all cases: KINOMEscan competition binding
Conditions in all cases: compound 10.0 µM
[1] = system: ABL1 (human), P00519 [E255K]
BRSK1 (human) = BRSK1 (human) (UniProt Q8TDC3)
CAMK2A (human) = CAMK2A (human) (UniProt Q9UQM7)
CDK15 (human) = CDK15 (human) (UniProt Q96Q40)
CDK5 (human) = CDK5 (human) (UniProt Q00535)
CSNK1A1 (human) = CSNK1A1 (human) (UniProt P48729)
CSNK1A1L (human) = CSNK1A1L (human) (UniProt Q8N752)
CSNK1E (human) = CSNK1E (human) (UniProt P49674)
[2] = system: EGFR (human), P00533 [L861Q]
[3] = system: EGFR (human), P00533 [T790M/L858R]
[4] = system: EGFR (human), P00533 [T790M]
EPHA1 (human) = EPHA1 (human) (UniProt P21709)
EPHB3 (human) = EPHB3 (human) (UniProt P54753)
ERBB4 (human) = ERBB4 (human) (UniProt Q15303)
FLT4 (human) = FLT4 (human) (UniProt P35916)
HIPK4 (human) = HIPK4 (human) (UniProt Q8NE63)
LIMK2 (human) = LIMK2 (human) (UniProt P53671)
MAPKAPK5 (human) = MAPKAPK5 (human) (UniProt Q8IW41)
MARK1 (human) = MARK1 (human) (UniProt Q9P0L2)
MYLK3 (human) = MYLK3 (human) (UniProt Q32MK0)
PAK4 (human) = PAK4 (human) (UniProt O96013)
PAK6 (human) = PAK6 (human) (UniProt Q9NQU5)
PHKG2 (human) = PHKG2 (human) (UniProt P15735)
PIM2 (human) = PIM2 (human) (UniProt Q9P1W9)
PRKAA1 (human) = PRKAA1 (human) (UniProt Q13131)
PRKACA (human) = PRKACA (human) (UniProt P17612)
PRKG2 (human) = PRKG2 (human) (UniProt Q13237)
PRKX (human) = PRKX (human) (UniProt P51817)
RIOK2 (human) = RIOK2 (human) (UniProt Q9BVS4)
RIPK2 (human) = RIPK2 (human) (UniProt O43353)
SLK (human) = SLK (human) (UniProt Q9H2G2)
SRC (human) = SRC (human) (UniProt P12931)
STK3 (human) = STK3 (human) (UniProt Q13188)
STK32B (human) = STK32B (human) (UniProt Q9NY57)
TAOK3 (human) = TAOK3 (human) (UniProt Q9H2K8)
TEK (human) = TEK (human) (UniProt Q02763)
TLK1 (human) = TLK1 (human) (UniProt Q9UKI8)

PRKG2 (human), sequence (Q13237 whole entry, looked up): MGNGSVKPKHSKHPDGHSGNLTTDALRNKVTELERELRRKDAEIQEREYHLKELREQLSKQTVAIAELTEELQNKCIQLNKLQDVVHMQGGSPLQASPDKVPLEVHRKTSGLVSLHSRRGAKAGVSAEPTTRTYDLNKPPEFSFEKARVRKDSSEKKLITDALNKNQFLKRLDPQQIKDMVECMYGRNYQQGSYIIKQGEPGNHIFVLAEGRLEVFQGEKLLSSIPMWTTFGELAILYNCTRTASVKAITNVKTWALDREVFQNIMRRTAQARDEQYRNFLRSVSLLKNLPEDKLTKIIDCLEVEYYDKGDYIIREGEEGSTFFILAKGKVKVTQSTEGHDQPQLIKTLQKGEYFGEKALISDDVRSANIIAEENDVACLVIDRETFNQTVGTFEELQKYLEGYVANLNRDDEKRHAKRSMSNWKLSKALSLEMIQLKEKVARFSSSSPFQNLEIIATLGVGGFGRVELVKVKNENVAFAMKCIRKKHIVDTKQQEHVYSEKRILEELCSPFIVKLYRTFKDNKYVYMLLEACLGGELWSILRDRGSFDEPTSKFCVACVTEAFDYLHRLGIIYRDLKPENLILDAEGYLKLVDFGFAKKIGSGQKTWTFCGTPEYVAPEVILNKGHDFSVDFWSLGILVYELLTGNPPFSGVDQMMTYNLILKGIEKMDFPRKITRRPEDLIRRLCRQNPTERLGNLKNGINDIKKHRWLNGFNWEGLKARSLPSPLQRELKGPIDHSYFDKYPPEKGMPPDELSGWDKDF
BRSK1 (human), sequence (Q8TDC3 whole entry, looked up): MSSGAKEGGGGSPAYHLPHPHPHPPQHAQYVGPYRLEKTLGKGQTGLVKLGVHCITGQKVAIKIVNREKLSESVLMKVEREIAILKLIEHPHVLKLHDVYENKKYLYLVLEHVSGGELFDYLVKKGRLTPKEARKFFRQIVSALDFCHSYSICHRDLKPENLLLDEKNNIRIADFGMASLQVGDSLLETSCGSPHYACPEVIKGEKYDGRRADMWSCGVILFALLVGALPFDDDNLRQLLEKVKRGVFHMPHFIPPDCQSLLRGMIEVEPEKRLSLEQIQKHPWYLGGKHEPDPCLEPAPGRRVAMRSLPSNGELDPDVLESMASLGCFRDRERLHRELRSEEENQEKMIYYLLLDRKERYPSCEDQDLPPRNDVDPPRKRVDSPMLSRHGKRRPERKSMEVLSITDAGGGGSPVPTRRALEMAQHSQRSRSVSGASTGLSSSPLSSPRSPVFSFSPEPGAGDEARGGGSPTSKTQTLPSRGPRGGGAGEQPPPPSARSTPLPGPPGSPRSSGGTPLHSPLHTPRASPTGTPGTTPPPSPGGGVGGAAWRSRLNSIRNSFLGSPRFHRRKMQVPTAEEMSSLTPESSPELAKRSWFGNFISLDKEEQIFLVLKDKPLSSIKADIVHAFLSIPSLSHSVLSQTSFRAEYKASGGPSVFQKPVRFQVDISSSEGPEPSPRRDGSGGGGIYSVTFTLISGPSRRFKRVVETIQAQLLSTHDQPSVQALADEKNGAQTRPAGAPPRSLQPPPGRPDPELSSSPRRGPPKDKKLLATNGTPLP
MAPKAPK5 (human), sequence (Q8IW41 whole entry, looked up): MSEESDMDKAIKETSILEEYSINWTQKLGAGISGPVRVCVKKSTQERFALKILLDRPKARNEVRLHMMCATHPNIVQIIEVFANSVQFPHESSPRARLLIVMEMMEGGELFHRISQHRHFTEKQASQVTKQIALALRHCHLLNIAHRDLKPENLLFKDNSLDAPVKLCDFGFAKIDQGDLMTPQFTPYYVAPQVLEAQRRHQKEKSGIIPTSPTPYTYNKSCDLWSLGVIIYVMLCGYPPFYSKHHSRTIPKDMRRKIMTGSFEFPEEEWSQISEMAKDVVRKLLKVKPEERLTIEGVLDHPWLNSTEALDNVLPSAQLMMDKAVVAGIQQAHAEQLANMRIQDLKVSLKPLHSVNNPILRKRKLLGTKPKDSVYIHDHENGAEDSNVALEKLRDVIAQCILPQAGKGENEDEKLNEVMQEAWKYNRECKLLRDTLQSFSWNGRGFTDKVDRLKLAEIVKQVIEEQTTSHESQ
ABL1 (human), P00519 [E255K], sequence (P00519 whole entry E255K, looked up): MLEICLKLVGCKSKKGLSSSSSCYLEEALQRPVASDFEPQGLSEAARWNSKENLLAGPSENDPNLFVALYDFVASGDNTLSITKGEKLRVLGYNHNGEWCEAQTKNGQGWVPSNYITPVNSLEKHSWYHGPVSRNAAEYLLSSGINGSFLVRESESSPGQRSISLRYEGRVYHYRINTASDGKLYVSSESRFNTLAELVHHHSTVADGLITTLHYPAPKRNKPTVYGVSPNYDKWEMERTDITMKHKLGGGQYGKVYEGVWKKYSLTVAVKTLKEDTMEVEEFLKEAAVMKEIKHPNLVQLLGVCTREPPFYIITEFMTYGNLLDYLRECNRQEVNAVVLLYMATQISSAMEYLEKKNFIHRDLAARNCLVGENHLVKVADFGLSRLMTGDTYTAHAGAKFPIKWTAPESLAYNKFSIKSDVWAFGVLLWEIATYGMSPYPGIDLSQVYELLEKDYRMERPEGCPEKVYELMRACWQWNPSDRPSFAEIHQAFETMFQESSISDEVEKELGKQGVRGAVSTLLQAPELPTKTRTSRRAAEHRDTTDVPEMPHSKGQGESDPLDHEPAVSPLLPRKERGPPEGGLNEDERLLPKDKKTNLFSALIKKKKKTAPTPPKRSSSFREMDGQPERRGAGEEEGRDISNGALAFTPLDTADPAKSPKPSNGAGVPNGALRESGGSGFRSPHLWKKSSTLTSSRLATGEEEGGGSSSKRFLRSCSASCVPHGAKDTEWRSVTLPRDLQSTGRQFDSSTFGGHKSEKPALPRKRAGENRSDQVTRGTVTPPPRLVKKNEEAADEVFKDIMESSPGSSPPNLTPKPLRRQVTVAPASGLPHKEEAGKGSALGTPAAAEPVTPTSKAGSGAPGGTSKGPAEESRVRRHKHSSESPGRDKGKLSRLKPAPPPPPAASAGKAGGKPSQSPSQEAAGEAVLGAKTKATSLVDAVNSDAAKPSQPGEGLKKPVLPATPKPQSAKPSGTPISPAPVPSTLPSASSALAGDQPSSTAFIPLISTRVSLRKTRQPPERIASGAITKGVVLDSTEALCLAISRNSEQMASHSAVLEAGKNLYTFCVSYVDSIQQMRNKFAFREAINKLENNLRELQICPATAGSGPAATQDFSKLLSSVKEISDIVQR
LIMK2 (human), sequence (P53671 whole entry, looked up): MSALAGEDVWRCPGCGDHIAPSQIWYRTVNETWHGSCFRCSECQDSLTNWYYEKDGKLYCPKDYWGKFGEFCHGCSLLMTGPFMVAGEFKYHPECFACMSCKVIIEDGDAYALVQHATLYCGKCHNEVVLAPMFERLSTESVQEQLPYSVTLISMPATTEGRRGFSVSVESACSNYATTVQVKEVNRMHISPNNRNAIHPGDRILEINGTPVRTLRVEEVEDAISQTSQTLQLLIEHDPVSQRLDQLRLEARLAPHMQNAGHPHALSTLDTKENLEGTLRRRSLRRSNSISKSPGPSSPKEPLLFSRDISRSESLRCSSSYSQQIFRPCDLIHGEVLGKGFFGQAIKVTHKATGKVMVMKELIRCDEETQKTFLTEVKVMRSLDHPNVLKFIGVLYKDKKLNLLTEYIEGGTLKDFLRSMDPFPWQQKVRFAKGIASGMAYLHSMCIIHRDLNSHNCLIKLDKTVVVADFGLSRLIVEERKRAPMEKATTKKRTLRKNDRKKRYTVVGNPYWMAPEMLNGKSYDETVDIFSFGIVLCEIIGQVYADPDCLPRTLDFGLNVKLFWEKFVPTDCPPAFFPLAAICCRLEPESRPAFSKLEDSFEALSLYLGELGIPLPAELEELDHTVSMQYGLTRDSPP
PHKG2 (human), sequence (P15735 whole entry, looked up): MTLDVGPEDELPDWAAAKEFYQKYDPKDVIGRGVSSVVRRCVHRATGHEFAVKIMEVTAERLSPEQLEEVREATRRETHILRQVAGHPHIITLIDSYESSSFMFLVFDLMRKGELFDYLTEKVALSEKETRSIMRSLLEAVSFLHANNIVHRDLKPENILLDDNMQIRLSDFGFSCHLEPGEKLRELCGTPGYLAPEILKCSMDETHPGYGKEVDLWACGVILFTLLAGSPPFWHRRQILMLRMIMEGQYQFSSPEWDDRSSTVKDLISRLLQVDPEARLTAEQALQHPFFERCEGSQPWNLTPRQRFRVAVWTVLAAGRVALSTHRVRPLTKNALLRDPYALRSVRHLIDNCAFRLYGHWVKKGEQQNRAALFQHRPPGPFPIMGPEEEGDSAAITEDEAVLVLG
CAMK2A (human), sequence (Q9UQM7 whole entry, looked up): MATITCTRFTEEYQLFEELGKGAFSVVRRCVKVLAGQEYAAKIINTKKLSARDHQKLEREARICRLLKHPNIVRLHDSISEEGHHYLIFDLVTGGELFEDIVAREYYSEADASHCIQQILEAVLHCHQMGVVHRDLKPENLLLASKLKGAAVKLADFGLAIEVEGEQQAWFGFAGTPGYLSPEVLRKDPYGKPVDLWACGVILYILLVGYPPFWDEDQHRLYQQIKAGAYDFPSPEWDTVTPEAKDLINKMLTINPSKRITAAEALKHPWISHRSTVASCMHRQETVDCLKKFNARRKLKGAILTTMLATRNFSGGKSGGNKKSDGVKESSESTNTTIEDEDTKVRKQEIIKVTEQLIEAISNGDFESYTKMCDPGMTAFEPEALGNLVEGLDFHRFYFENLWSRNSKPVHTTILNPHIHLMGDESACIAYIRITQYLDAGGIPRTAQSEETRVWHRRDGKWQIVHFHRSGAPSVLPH
CDK5 (human), sequence (Q00535 whole entry, looked up): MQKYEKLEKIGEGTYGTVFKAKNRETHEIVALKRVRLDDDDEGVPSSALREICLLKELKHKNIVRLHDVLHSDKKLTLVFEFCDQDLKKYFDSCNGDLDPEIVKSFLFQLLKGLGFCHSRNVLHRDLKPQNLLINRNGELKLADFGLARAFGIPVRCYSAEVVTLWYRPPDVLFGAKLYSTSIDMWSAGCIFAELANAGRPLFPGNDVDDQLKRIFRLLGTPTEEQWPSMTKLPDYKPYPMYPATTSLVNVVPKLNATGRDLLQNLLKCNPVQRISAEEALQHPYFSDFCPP

## COc1cc(C(=O)N2CCC(N3CCN(C)CC3)CC2)ccc1Nc1ncc2c(n1)N(C)c1ccccc1C(=O)N2C
[1]
  kinase still bound, per cent of control: 80%
BRSK1 (human)
  kinase still bound, per cent of control: 81%
CAMK2A (human)
  kinase still bound, per cent of control: 21%
CDK15 (human)
  residual activity: 100%
CDK5 (human)
  residual activity: 81%
CSNK1A1 (human)
  kinase still bound, per cent of control: 100%
CSNK1A1L (human)
  kinase still bound, per cent of control: 100%
CSNK1E (human)
  kinase still bound, per cent of control: 95%
[2]
  kinase still bound, per cent of control: 100%
[3]
  kinase still bound, per cent of control: 84%
[4]
  kinase still bound, per cent of control: 88%
EPHA1 (human)
  kinase still bound, per cent of control: 100%
EPHB3 (human)
  kinase still bound, per cent of control: 100%
ERBB4 (human)
  kinase still bound, per cent of control: 100%
FLT4 (human)
  kinase still bound, per cent of control: 100%
HIPK4 (human)
  kinase still bound, per cent of control: 100%
LIMK2 (human)
  kinase still bound, per cent of control: 100%
MAPKAPK5 (human)
  kinase still bound, per cent of control: 97%
MARK1 (human)
  kinase still bound, per cent of control: 87%
MYLK3 (human)
  kinase still bound, per cent of control: 100%
PAK4 (human)
  kinase still bound, per cent of control: 94%
PAK6 (human)
  kinase still bound, per cent of control: 98%
PHKG2 (human)
  kinase still bound, per cent of control: 33%
PIM2 (human)
  kinase still bound, per cent of control: 100%
PRKAA1 (human)
  kinase still bound, per cent of control: 51%
PRKACA (human)
  residual activity: 100%
PRKG2 (human)
  kinase still bound, per cent of control: 74%
PRKX (human)
  kinase still bound, per cent of control: 99%
RIOK2 (human)
  kinase still bound, per cent of control: 100%
RIPK2 (human)
  kinase still bound, per cent of control: 100%
SLK (human)
  kinase still bound, per cent of control: 100%
SRC (human)
  kinase still bound, per cent of control: 100%
STK3 (human)
  kinase still bound, per cent of control: 71%
STK32B (human)
  kinase still bound, per cent of control: 100%
TAOK3 (human)
  kinase still bound, per cent of control: 24%
TEK (human)
  kinase still bound, per cent of control: 100%
TLK1 (human)
  kinase still bound, per cent of control: 100%

From the kinase profiling compilation of Christmann-Franck et al. (2016)
